Test results published in patent US9592186B2, “Topical compositions and methods for skin lightening” (Avon Products, Inc., priority 2014, dated 2017).

System: Human epidermal melanocytes from dark-pigmented skin
Assay: Melanin absorbance (pigmentation) in cultured human epidermal melanocytes after 8 days of incubation
Type: cell-based
Details: for effect on pigmentation (in words): summary of Table 1; for % Pigmentation (percent change of melanin absorbance relative to vehicle control): 8 days incubation, absorption at 405 nm
Procedure: The Compound of Formula (II) was examined for its ability to reduce pigmentation in vitro in human melanocytes. Human epidermal melanocytes from dark-pigmented skin were seeded in 6-well dishes and grown using commercially available Medium 254, a sterile, liquid medium prepared with 200 μM calcium chloride for the culture of human epidermal melanocytes, supplemented with 1% Penicillin/Streptomycin and 1% Human Melanocyte Growth Supplement. Corresponding controls were maintained without histamine, Diphenylhydramine HCl and Compound II. Four replicates were tested for each combination. After 8 days of incubation, melanin was collected and processed by washing the wells with IX phosphate-buffered saline (PBS), followed by addition of 200 μL of 2M NaOH to three of the four replicates, which are then scraped, pooled and boiled at 80° C. for an hour. Melanin absorption was then measured at 405 nm using a spectrophotometer.
A larger (positive or negative) percent change indicates a larger increase or reduction in melanin.

Row | SMILES | effect on pigmentation (in words) (at both concentrations tested (0.001% and 0.0001%)) | % Pigmentation (percent change of melanin absorbance relative to vehicle control) (concentration 0.0001%) [%] | % Pigmentation (percent change of melanin absorbance relative to vehicle control) (concentration 0.001%) [%] | effect on pigmentation (in words) (5 μM)
1 | CC(=O)c1ccc(OCC(=O)NCC(c2ccco2)N2CCCCC2)cc1 (stereo not shown) [Compound (II)] | effective to reduce pigmentation | −10.40 | −40.83 | –
2 | NCCc1c[nH]cn1 [Histamine, reference compound] | – | – | – | significant increase in pigmentation
